These molecules were tested against T1, human RXFP1 (Homo sapiens, UniProt Q9HBX9) (assay: hRXFP1 HEK293 cAMP assay (HTRF)). Settings: HEK293 cells stably expressing human RXFP1, 30 min at room temperature.
T1 construct: expressed in transfected cells
T1 sequence (Q9HBX9 1-757): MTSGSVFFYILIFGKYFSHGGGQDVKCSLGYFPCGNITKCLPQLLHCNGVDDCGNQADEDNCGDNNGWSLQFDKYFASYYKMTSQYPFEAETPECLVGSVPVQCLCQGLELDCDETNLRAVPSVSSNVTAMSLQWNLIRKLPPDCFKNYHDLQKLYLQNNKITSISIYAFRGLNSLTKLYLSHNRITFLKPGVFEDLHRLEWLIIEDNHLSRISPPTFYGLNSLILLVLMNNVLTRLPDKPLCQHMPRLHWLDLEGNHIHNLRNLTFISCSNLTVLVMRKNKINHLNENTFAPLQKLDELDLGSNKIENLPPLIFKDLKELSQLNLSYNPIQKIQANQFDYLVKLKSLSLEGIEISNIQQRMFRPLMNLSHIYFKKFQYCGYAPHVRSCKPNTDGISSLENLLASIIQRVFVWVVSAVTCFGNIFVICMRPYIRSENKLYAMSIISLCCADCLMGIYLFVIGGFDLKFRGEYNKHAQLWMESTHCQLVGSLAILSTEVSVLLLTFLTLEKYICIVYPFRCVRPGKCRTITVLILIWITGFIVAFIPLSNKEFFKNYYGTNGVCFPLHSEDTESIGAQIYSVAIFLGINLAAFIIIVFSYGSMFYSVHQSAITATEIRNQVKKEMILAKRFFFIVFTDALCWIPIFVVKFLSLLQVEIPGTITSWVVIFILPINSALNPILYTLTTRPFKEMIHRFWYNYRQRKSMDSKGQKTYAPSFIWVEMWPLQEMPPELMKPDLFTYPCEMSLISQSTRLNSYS
Type: cell-based
How it was run: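 hRXFP1-HEK293 stable line; HBSS + Ca/Mg, 20 mM HEPES, 0.05% BSA, 0.5 mM IBMX; cpd 0.010 nM–50 μM, 2% DMSO; 30 min RT; lysis, HTRF cAMP detection; 4-PL fit.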

Row | Structure (SMILES) | EC50
1 | COc1cc(C#CCO)ccc1C(=O)N[C@@H]1C2CCC(/C2=C/C(F)(F)F)[C@@H]1C(=O)Nc1ccc(F)c(C(F)(F)F)c1 (stereo partly drawn) [Example 74, (2S,3R,7Z)-N-[4-fluoro-3-(trifluoromethyl)phe-nyl]-3-[4-(3-hydroxyprop-1-yn-1-yl)-2-methoxybenzamido]-7-(2,2,2-trifluoroethylidene)bi-cyclo[2.2.1]heptane-2-carboxamide] | 3550 nM
2 | COC(=O)C1CC(c2ccc(OC)c(C(=O)N[C@H]3[C@@H](C(=O)Nc4ccc(F)c(C(F)(F)F)c4)[C@H]4CC[C@@H]3/C4=C\C(F)(F)F)c2)C1 (stereo partly drawn) [Example 329, methyl 3-(3-{[(1R,2R,3S,4R,7Z)-3-{[4-fluoro-3-(trifluoromethyl)phenyl]carbamoyl}-7-(2,2,2-trifluoroethylidene)bicyclo[2.2.1]heptan-2-yl]carbamoyl}-4-methoxyphenyl) cyclobutane-1-carboxylate] | 210 nM
3 | COc1ccc(S(=O)(=O)N2CCN3C(=O)CCC3C2)cc1C(=O)N[C@H]1[C@@H](C(=O)Nc2ccc(F)c(C(F)(F)F)c2)[C@H]2CC[C@@H]1/C2=C\C1CC1 (stereo partly drawn) [Example 223, (1R,2S,3R,4R,7Z)-7-(cyclopropyl-methylidene)-N-[4-fluoro-3-(trifluoromethyl)phenyl]-3-[2-methoxy-5-({6-oxo-octahydropyrrolo[1,2-a]piperazin-2-yl}sulfonyl)benzamido] bicyclo[2.2.1] heptane-2-carboxamide] | 145 nM
4 | CCCc1ccc(OC)c(C(=O)N[C@@H]2C3CCC(/C3=C/C(F)(F)F)[C@@H]2C(=O)Nc2ccc(F)c(C(F)(F)F)c2)c1 (stereo partly drawn) [Example 85, (2S,3R,7Z)-N-[4-fluoro-3-(trifluoromethyl)phe-nyl]-3-(2-methoxy-5-propylbenzamido)-7-(2,2,2-trifluoroethylidene)bi-cyclo[2.2.1]heptane-2-carboxamide] | 3000 nM
5 | COc1ccc(CN2C(=O)NC3(CCOC3)C2=O)cc1C(=O)N[C@H]1[C@@H](C(=O)Nc2ccc(F)c(C(F)(F)F)c2)[C@H]2CC[C@@H]1/C2=C\C1CC1 (stereo partly drawn) [Example 295, (1R,2S,3R,4R,7Z)-7-(cyclopropyl-methylidene)-3-[5-({2,4-dioxo-7-oxa-1,3-diazaspiro[4.4]nonan-3-yl}methyl)-2-methoxybenzamido]-N-[4-fluoro-3-(trifluoromethyl)phenyl]bicyclo [2.2.1]heptane-2-carboxamide] | 70.4 nM
6 | COc1ccc(S(=O)(=O)N2CCN3C(=O)CCC3C2)cc1C(=O)N[C@H]1[C@@H](C(=O)Nc2ccc(F)c(C(F)(F)F)c2)[C@H]2CC[C@@H]1/C2=C\C(F)(F)F (stereo partly drawn) [Example 210, (1R,2S,3R,4R,7Z)-N-[4-fluoro-3-(trifluoromethyl)phenyl]-3-[2-methoxy-5-({6-oxo-octabydropyrrolo [1,2-a]piperazin-2-yl}sulfonyl)benzamido]-7-(2,2,2-trifluoroethylidene) bicyclo[2.2.1] heptane-2-carboxamide] | 237 nM
7 | COc1ccc(CCCN)cc1C(=O)N[C@H]1[C@@H](C(=O)Nc2ccc(F)c(C(F)(F)F)c2)[C@H]2CC[C@@H]1/C2=C\C(F)(F)F [Example 110, (1R,2S,3R,4R,Z)-3-(5-(3-aminopropyl)-2-methoxybenzamido)-N-(4-fluoro-3-(trifluoromethyl)phenyl)-7-(2,2,2-trifluoroethylidene) bicyclo[2.2.1]heptane-2-carboxamide] | 2520 nM
8 | COc1c(F)cc(C(=O)NCC2(S(C)(=O)=O)CC2)cc1C(=O)N[C@H]1[C@@H](C(=O)Nc2ccc(F)c(C(F)(F)F)c2)[C@H]2CC[C@@H]1/C2=C\C1CCCC1 [Example 367, N3-[(1R,2R,3S,4R,7Z)-7-(cyclopentyl-methylidene)-3-{[4-fluoro-3-(trifluoromethyl)phenyl]carbamoyl}bicyclo[2.2.1]heptan-2-yl]-5-fluoro-N1-[(1-methanesulfonyl-cyclopropyl)methyl]-4-methoxybenzene-1,3-dicarboxamide] | 2.3 nM
9 | COc1ccc(C2CCCC(NC(=O)C3CCOCC3)C2)cc1C(=O)N[C@@H]1C2CCC(/C2=C/C(F)(F)F)[C@@H]1C(=O)Nc1ccc(F)c(C(F)(F)F)c1 (single isomer, unassigned) [Example 48] | 833 nM
10 | COc1ccc(CCC(C)(C)O)cc1C(=O)NC1C2CCC(/C2=C/C2CCOCC2)[C@@H]1C(=O)Nc1ccc(F)c(C(F)(F)F)c1 (stereo partly drawn) [Example 166, (7Z)-N-[4-fluoro-3-(trifluoromethyl)phe-nyl]-3-[5-(3-hydroxy-3-methylbutyl)-2-methoxybenzamido]-7-[(oxan-4-yl)methylidene]bicy-clo[2.2.1]heptane-2-carboxamide] | 129 nM
11 | COc1ccc(CCC(C)(C)O)cc1C(=O)NC1C2CCC(/C2=C/C2CCCOC2)[C@@H]1C(=O)Nc1ccc(F)c(C(F)(F)F)c1 (single isomer, unassigned) [Example 173, (7Z)-N-[4-fluoro-3-(trifluoromethyl)phe-nyl]-3-[5-(3-hydroxy-3-methylbutyl)-2-methoxybenzamido]-7-[(oxan-3-yl)methylidene]bicy-clo[2.2.1]heptane-2-carboxamide] | 186 nM
12 | COc1ccc(CCCOc2ccncc2)cc1C(=O)NC1C2CCC(/C2=C/C(F)(F)F)[C@@H]1C(=O)Nc1ccc(F)c(C(F)(F)F)c1 (stereo partly drawn) [Example 104] | 988 nM
13 | COc1cc(CN2C(=O)CNC2=O)ccc1C(=O)N[C@@H]1C2CCC(/C2=C/C(F)(F)F)[C@@H]1C(=O)Nc1ccc(F)c(C(F)(F)F)c1 (stereo partly drawn) [Example 26, (2S,3R,7Z)-3-{4-[(2,5-dioxoimidazolidin-1-yl)methyl]-2-methoxybenzamido}-N-[4-fluoro-3-(trifluoromethyl)phe-nyl]-7-(2,2,2-trifluoroethylidene)bi-cyclo[2.2.1]heptane-2-carboxamide] | 1380 nM
14 | COc1ccc(C2CC3(CC(N)C3)C2)cc1C(=O)NC1C2CCC(/C2=C/C(F)(F)F)[C@@H]1C(=O)Nc1ccc(F)c(C(F)(F)F)c1 (stereo partly drawn) [Example 154, (2S,3R,7Z)-3-(5-{6-aminospiro[3.3]hept-an-2-yl}-2-methoxybenzamido)-N-[4-fluoro-3-(trifluoromethyl)phe-nyl]-7-(2,2,2-trifluoroethylidene)bi-cyclo[2.2.1]heptane-2-carboxamide] | 1050 nM

Second part, the molecule after the results:

Row | EC50 | Structure (SMILES)
15 | 19 nM | COc1ccc(C2CCCC(OC(=O)Nc3ccccc3)C2)cc1C(=O)N[C@@H]1C2CCC(/C2=C/C(F)(F)F)[C@@H]1C(=O)Nc1ccc(F)c(C(F)(F)F)c1 (single isomer, unassigned) [Example 40]
16 | 7.25 nM | COc1ccc([C@H]2C[C@H](O)C2)cc1C(=O)N[C@H]1[C@@H](C(=O)Nc2ccc(F)c(C(F)(F)F)c2)[C@H]2CC[C@@H]1/C2=C\C1CC1 [Example 277, (1R,2S,3R,4R,7Z)-7-(cyclopropylmethyl-idene)-N-[4-fluoro-3-(trifluoromethyl)phenyl]-3-{2-methoxy-5-[(1r,3r)-3-hydroxycyclobutyl]benzamido} bicyclo [2.2.1]heptane-2-carboxamide]
17 | 79 nM | COc1ccc(C2CC(CO)C2)cc1C(=O)N[C@H]1[C@@H](C(=O)Nc2ccc(F)c(C(F)(F)F)c2)[C@H]2CC[C@@H]1/C2=C\C1CC1 (stereo partly drawn) [Example 330, (1R,2S,3R,4R,7Z)-7-(cyclopropylmethylidene)-N-[4-fluoro-3-(trifluoromethyl)phenyl]-3-{5-[3-(hydroxymethyl)cyclobutyl]-2-methoxybenzamido} bicyclo[2.2.1]heptane-2-carboxamide]
18 | 3.9 nM | COc1ccc(C2CC(C(C)(C)O)C2)cc1C(=O)N[C@H]1[C@@H](C(=O)Nc2ccc(F)c(C(F)(F)F)c2)[C@H]2CC[C@@H]1/C2=C\C1CCCC1 (stereo partly drawn) [Example 363, (1R,2S,3R,4R,Z)-7-(cyclopentyl-methylene)-N-(4-fluoro-3-(trifluoromethyl)phenyl)-3-(5-(3-(2-hydroxypropan-2-yl)cyclobutyl)-2-methoxybenzamido) bicyclo[2.2.1] heptane-2-carboxamide]
19 | 280 nM | COc1ccc(Nc2ccccc2)cc1C(=O)N[C@H]1[C@@H](C(=O)Nc2ccc(F)c(C(F)(F)F)c2)[C@H]2CC[C@@H]1/C2=C\C1CC1 [Example 2, (1R,2S,3R,4R,Z)-7-(cyclopropylmethylene)-N-(4-fluoro-3-(trifluoromethyl)phenyl)-3-(2-methoxy-5-(phenylamino)benzamido) bicyclo[2.2.1]heptane-2-carboxamide]
20 | 94 nM | COc1ccc(COCC2COC2)cc1C(=O)N[C@@H]1C2CCC(/C2=C/C2CC2)[C@@H]1C(=O)Nc1ccc(F)c(C(F)(F)F)c1 (stereo partly drawn) [Example 16, (2S,3R,7Z)-7-(cyclopropylmethyli-dene)-N-[4-fluoro-3-(trifluoromethyl)phe-nyl]-3-(2-methoxy-5-{[(oxetan-3-yl)methoxy]methyl}benzamido)bi-cyclo[2.2.1]hept-ane-2-carboxamide]
21 | 41.3 nM | COc1ccc(C(=O)N2CC(C)(C)C2)cc1C(=O)N[C@H]1[C@@H](C(=O)Nc2ccc(F)c(C(F)(F)F)c2)[C@H]2CC[C@@H]1/C2=C\C1CC1 [Example 237]
